Publication PMC6245549 (Journal of medicinal chemistry, 2018)

Columns and labels:
[1] = system: MSK1 phosphorylation at T581; assay: Phosphorylation state of MSK1; type: cell-based
IL-8 [2] = assay: IL-8 ELISA; type: cell-based; conditions: Homo sapiens, read-out: Inhibition of IL-8 cytokine production
BRD4(1) [3] = target: T1, BRD4(1) (Homo sapiens, UniProt O60885); assay: Isothermal-titration calorimetry; type: binding
c-Myc = assay: Western blot of c-Myc levels in MM.1S cells; type: cell-based; conditions: 6 h, concentrations approaching BRD4(1) Kd
A549 cells = assay: Cytotoxicity toward A549 cells; type: cell-based
BRDT(1) = BRDT(1) (Homo sapiens, UniProt Q58F21); assay: Protein-observed fluorine NMR; type: binding; conditions: 50 μM 19F-labeled protein, W50
BPTF = BPTF (Homo sapiens, UniProt Q12830); assay: Protein-observed fluorine NMR; type: binding
[4] = system: yeast GCN5-like malarial protein (pfGCN5); assay: Protein-observed fluorine NMR; type: binding
BET D2s = assay: DiscoverX bromodomain-selectivity profiling, BET D2s; type: binding, human; conditions: 10 μM
p38α [5] = target: T2, p38α (Homo sapiens, UniProt Q16539); assay: DiscoverX kinase-selectivity profiling, p38α; type: binding; conditions: 1 μM, DiscoverX platform
p38β = p38β (Homo sapiens, UniProt Q15759); assay: DiscoverX kinase-selectivity profiling, p38β; type: binding; conditions: 1 μM, DiscoverX platform
p38α [6] = target: T2, p38α; assay: Cellular thermal-shift assay; type: cell-based; conditions: A549 cells, isothermal denaturation, dose-dependent
BRD4(1) [7] = target: T1, BRD4(1); assay: Fluorescence anisotropy, BRD4
BRD4(2) = BRD4(2) (Homo sapiens, UniProt O60885); assay: Fluorescence anisotropy, BRD4
BRD4 D1 = BRD4 D1 (Homo sapiens, UniProt O60885); assay: ALPHAScreen, BRD4 D1
kinases = conditions: 100 nM; no reference given; cited from earlier work
BRD4(1) [8] = target: T1, BRD4(1); assay: Protein-observed fluorine NMR; type: binding
A549-NF-κB-luc cells = assay: NF-κB luciferase reporter assay
IL-8 [9] = conditions: 20 μM; cited from earlier work

T2 sequence (Q16539 whole entry): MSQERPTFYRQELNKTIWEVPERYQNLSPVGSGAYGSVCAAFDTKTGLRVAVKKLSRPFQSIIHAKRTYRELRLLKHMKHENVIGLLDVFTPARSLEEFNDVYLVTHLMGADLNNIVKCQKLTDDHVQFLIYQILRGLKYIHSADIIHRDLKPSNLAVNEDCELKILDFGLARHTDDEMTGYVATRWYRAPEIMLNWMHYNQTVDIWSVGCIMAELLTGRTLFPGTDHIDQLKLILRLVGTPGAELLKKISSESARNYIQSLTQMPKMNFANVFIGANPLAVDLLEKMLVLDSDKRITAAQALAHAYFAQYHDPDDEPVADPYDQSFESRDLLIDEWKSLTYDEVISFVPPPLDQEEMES
p38β, sequence (Q15759 whole entry): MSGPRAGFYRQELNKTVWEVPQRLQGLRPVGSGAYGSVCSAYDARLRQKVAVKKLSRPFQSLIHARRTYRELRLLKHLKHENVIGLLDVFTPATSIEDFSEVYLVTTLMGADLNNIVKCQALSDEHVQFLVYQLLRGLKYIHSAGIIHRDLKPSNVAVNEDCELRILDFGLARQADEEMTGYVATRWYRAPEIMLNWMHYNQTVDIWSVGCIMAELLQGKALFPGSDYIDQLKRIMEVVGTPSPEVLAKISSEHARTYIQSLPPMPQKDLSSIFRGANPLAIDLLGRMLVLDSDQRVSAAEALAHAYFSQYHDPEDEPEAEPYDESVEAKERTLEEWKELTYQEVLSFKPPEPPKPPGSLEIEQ

In the case of `Cc1sc2c(c1C)C(c1ccc(Cl)cc1)=N[C@@H](CC(=O)OC(C)(C)C)c1nnc(C)n1-2` [(+)-JQ1, reference compound], the “MSK1 phosphorylation at T581, in words” value [1] is reported as “not observed” and the inhibition at 1 µM (IL-8 [2]) is reported as 63%.

With `Cc1ccc(Nc2nccc(-c3c(-c4ccc(F)cc4)ncn3C3CCNCC3)n2)cc1C` [Compound IV, N-(3,4-Dimethylphenyl)-4-(4-(4-fluorophenyl)-1-(piperidin-4-yl)-1H-imidazol-5-yl)pyrimidin-2-amine] the “Entropy of binding in ITC” value (BRD4(1) [3]) was 5.0 cal/mol/°C, the “Expression of c-Myc oncoprotein, in words” value (c-Myc) was “inhibited expression” and the “MSK1 phosphorylation at T581, in words” value [1] was “decrease in levels of MSK1 phosphorylation”. The “Concentration up to which cytotoxicity toward A549 cells is minimal” value (A549 cells) was at most 25 µM.

In the case of `Cc1cc(C)cc(Nc2nccc(-c3c(-c4ccc(F)cc4)ncn3C3CCNCC3)n2)c1` [Compound V, N-(3,5-Dimethylphenyl)-4-(4-(4-fluorophenyl)-1-(piperidin-4-yl)-1H-imidazol-5-yl)pyrimidin-2-amine], the “Small molecule needed to reach fully bound state of WPF-shelf resonance, BRDT(1)” value (BRDT(1)) is reported as “approximately 1 equiv”, the “Binding to BPTF by PrOF NMR, in words” value (BPTF) is reported as “did not detect binding” and the “Binding to GCN5-like malarial protein by PrOF NMR, in words” value [4] is reported as “did not detect binding”. The “Inhibition of BET D2s, DiscoverX” value (BET D2s) was 7−27%, the “Inhibitory activity against p38α, in words” value (p38α [5]) was “high inhibitory activity” and the “Inhibitory activity against p38β, in words” value (p38β) was “high inhibitory activity”. The “Concentration above which p38α is stabilized (CETSA)” value (p38α [6]) was over 1 nM, the “Expression of c-Myc oncoprotein, in words” value (c-Myc) was “inhibited expression” and the “MSK1 phosphorylation at T581, in words” value [1] was “decrease in levels of MSK1 phosphorylation”. For the same molecule, the “Concentration up to which cytotoxicity toward A549 cells is minimal” value (A549 cells) was at most 10 µM.

For `Fc1ccc(-c2ncn(C3CCNCC3)c2-c2ccnc(Oc3cc(F)cc(F)c3)n2)cc1` [Compound VI, 2-(3,5-Difluorophenoxy)-4-(4-(4-fluorophenyl)-1-(piperidin-4-yl)-1H-imidazol-5-yl)pyrimidine], the “Binding to BRD4(1), in words” value (BRD4(1) [7]) was “only bound weakly” and the “Binding to BRD4(2) / displacement of BI-BODIPY, in words” value (BRD4(2)) was “only bound weakly”.

For `Cc1cc(C)cc(Nc2nccc(-c3c(C)nnn3C3CCNCC3)n2)c1` [IX, N-(3,5-Dimethylphenyl)-4-(4-methyl-1-(piperidin-4-yl)-1H-1,2,3-triazol-5-yl)pyrimidin-2-amine], the “Enhancement of binding to BRD4(1) relative to VII” value (BRD4 D1) was 20 fold.

In the case of `C[S+]([O-])c1ccc(-c2nc(-c3ccc(F)cc3)c(-c3ccncc3)[nH]2)cc1` (centres unmarked) [SB203580], the Kinase selectivity score (kinases) is given as 0.024.

For `Cc1cc(C)cc(Nc2nccc(-c3c(-c4ccc(F)cc4)nnn3C3CCNCC3)n2)c1` [VII, N-(3,5-Dimethylphenyl)-4-(4-(4-fluorophenyl)-1-(piperidin-4-yl)-1H-1,2,3-triazol-5-yl)pyrimidin-2-amine], the “Binding to BRD4(1) by PrOF NMR, in words” value (BRD4(1) [8]) was “bound BRD4(1) in a manner similar to that of compound V”.

In the case of `NC(=O)c1ccc(N(C(N)=O)c2c(F)cccc2F)nc1-c1ccc(F)cc1F` [VX-702], the “Inhibition in NF-κB reporter assay, in words” value (A549-NF-κB-luc cells) is reported as “limited inhibitory effects”.

For `C=C1C(=O)O[C@H]2[C@H]1CC/C(C)=C/CC[C@@]1(C)O[C@@H]21` [parthenolide], the “IL-8 production, in words” value (IL-8 [9]) is listed as “decreased IL-8 production to baseline”.
